The text below walks through data of patent US9688627B2, “Lactam compounds as EP4 receptor-selective agonists for use in the treatment of EP4-mediated diseases and conditions” (Cayman Chemical Company, Inc., priority 2013, dated 2017).

For one data set, the target named is T1, rat EP2 receptor (Rattus norvegicus, UniProt Q62928).
T1 construct: cells seeded on STEP plates
The data set can be described thus: SEAP activity assay on EP2 STEP plate. Type of data set: cell-based. Particulars: SEAP luminescence, 6-8 hours of stimulation; read-out: STEP cell functional assay EC50 SEAP/EP2. The text has this:
(§1) 2. […] In addition each concentration had triplicates. […] 4. […] Cover the plate with the lid. […] 6. […] 7. […] 8.

Data set [1] deals with T2, Human Prostanoid EP4 Receptor (Homo sapiens, UniProt P35408).
T2 construct: expressed in transfected cells; host or cells: HEK-293 cells (cell membrane homogenates)
T2 sequence (P35408 whole entry): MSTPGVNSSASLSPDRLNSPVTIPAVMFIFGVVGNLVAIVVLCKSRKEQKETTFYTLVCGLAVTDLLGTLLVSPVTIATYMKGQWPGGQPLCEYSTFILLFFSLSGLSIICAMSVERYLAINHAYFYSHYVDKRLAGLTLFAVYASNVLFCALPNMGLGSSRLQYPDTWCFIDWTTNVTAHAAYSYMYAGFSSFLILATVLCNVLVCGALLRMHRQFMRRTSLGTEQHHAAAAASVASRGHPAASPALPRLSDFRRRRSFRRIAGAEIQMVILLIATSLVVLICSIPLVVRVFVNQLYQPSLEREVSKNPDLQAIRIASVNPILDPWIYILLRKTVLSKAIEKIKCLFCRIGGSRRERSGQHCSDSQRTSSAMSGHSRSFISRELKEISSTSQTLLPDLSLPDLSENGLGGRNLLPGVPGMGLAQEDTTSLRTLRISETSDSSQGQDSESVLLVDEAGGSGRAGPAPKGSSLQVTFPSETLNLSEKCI
Kind of data set: Radioligand binding assay, agonist site of human prostanoid EP4 receptor in transfected HEK-293 cells. The note with it: for inhibition at 0.1 µM: 2 h, pH 6, read-out: hEP4 receptor binding, % @ 100 nM, @ 100 nM test compound; for IC50: read-out: hEP4 receptor binding IC50; for Ki: read-out: hEP4 receptor binding Ki. The procedure:
Radioligand Binding Assay for the Evaluation of the Affinity of Compounds for the Agonist Site of the Human Prostanoid EP4 Receptor in Transfected HEK-293 Cells
Following incubation, the samples are filtered rapidly under vacuum through glass fiber filters (GF/B, Packard) presoaked with 0.3% PEI and rinsed several times with ice-cold 50 mM Tris-HCl using a 96-sample cell harvester (Unifilter, Packard). The filters are dried then counted for radioactivity in a scintillation counter (Topcount, Packard) using a scintillation cocktail (Microscint 0, Packard).

Data set [2] addresses T3, rat EP4 receptor (Rattus norvegicus, UniProt P43114).
T3 construct: cells seeded on STEP plates
Kind of data set: SEAP activity assay on EP4 STEP plate. Type of data set: cell-based. Particulars: SEAP luminescence, 6-8 hours of stimulation; read-out: STEP cell functional assay EC50 SEAP/EP4.
Text: as §1

For data set [3], the target named is T3, rat EP4 receptor. The data set can be described thus: cAMP level assay on EP4 STEP plate. Type of data set: cell-based. Particulars: cAMP by ELISA, 30 minutes, 500 μM IBMX; read-out: STEP cell functional assay EC50 cAMP/EP4. The text has this: Functional Cellular Assays (STEP Plate Format)
Procedure of cAMP Assay for EP2/EP4 Agonist
3. […] In addition each concentration had triplicates.
6. Aspirate the supernatant.
A general note: Changes in cAMP serve as a functional read-out for many G protein-coupled receptors.

In another data set the test system is calvarial bone defect. The data set can be described thus: Rat calvarial defect model. The note with it: 3 mg/ml in calcium phosphate cement/demineralized bone matrix, eight weeks, values only in FIG. 1. The class given is in vivo, female Sprague Dawley rats. On the procedure: The rat calvarial defect model is a widely used model through which the ability of a treatment agent to induce bone formation is assessed (Aghaloo et al., The effect of NELL1 and bone morphogenetic protein-2 on calvarial bone regeneration, J. Oral Maxillofac. Surg., 2010, 68, 300-308; Mark et al., Repair of calvarial nonunions by osteogenin, a bone-inductive protein, Plast. Reconstr. Surg., 1990, 86, 623-30). Bone defects are created by removal of bone from the cranium of female Sprague Dawley rats by a bone trephine (cranial defect). Cranial defects are 2.6 mm in diameter and the cranium approximately 1 mm thick. A matrix of approximately 2 mm thickness is applied to the defect. Thus the dosing volume for each defect is calculated as π*r^2*matrix thickness=3.14*1.3^2*2=10.61 μl and rounded to 11 μl for purposes of dose calculation. Example 2E is delivered set inside calcium phosphate cement that, after loading with drug and setting, is ground to a fine powder and suspended in demineralized bone matrix at a ratio of 1:8 (weight/volume). Example 2E is tested at one dose of 3 mg/ml with five rats in the test group. […] The area measured at eight weeks was compared to the area of the original defect and the degree of repair calculated by the following formula: (original area-current area)/original area*100 The mean repair for each group after eight weeks of treatment is shown in the FIG. 1.

Structures are written as SMILES. Where only a bound is given, the exact number is not on record here.

T3 sequence (P43114 whole entry): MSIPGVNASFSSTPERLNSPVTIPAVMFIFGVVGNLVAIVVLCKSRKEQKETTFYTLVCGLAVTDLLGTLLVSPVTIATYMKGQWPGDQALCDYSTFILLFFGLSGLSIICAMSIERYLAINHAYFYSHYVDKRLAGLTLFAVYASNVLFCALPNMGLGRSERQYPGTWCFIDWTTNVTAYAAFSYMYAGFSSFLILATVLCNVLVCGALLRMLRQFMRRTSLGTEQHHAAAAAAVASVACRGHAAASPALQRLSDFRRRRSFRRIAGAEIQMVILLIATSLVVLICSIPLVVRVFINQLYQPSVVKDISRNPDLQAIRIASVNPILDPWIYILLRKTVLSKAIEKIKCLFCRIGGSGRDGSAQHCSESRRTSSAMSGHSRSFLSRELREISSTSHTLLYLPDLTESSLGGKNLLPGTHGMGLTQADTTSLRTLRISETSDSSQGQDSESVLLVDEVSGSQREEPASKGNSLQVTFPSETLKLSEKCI
T1 sequence (Q62928 whole entry): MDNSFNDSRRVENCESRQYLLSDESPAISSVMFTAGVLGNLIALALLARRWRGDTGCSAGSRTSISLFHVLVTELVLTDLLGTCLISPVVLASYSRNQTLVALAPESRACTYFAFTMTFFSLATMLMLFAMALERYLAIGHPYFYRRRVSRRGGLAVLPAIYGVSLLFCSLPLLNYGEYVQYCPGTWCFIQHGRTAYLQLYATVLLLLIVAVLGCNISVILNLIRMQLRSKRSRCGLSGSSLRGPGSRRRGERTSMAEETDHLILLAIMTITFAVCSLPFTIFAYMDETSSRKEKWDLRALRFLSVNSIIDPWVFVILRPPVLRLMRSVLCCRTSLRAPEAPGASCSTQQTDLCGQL

For the molecule `CC#CCC(C)[C@H](O)/C=C/[C@H]1CCC(=O)N1CCCCCCC(=O)O` (mixture of isomers) [Example 1C, 7-((2R)-2-((3S,4R/S,E)-3-hydroxy-4-methyloct-1-en-6-yn-1-yl)-5-oxopyrrolidin-1-yl)heptanoic acid], the EC50 at rat EP2 receptor was found to be 760 nM; on rat EP4 receptor [2], 0.67 nM. For the same molecule, the inhibition at 0.1 µM in data set [1] is 86%.
For `CC#CCC(C)[C@@H](O)/C=C/[C@H]1CCC(=O)N1CCCCCCC(=O)O` (mixture of isomers) [Example 1D, 7-((2R)-2-((3R,4R/S,E)-3-hydroxy-4-methyloct-1-en-6-yn-1-yl)-5-oxopyrrolidin-1-yl)heptanoic acid], the EC50 on rat EP2 receptor is greater than 10000 nM; at rat EP4 receptor [2] it was 4.82 nM. Moreover, the inhibition at 0.1 µM in data set [1] was 11%.
In the case of `CCC#CCC(C)[C@H](O)/C=C/[C@H]1CCC(=O)N1CCCCCCC(=O)O` (mixture of isomers) [Example 2C, 7-((2R)-2-((3S,4R/S,E)-3-hydroxy-4-methylnon-1-en-6-yn-1-yl)-5-oxopyrrolidin-1-yl)heptanoic acid], the EC50 on rat EP2 receptor turned out to be 905 nM. Further, in data set [1], the IC50 – broadly, the concentration at which inhibition is half-maximal – is 4 nM and the Ki – broadly, a dissociation constant, usually derived from enzyme kinetics or from competition with a known ligand – was 1.5 nM. Besides, at rat EP4 receptor [2], the EC50 is 0.064 nM.
Turning to `CC#CCC(C)[C@H](O)/C=C/[C@H]1CCC(=O)N1CCc1ccc(C(=O)O)cc1` (mixture of isomers) [Example 8C, 4-(2-((2R)-2-((3S,4R/S,E)-3-hydroxy-4-methyloct-1-en-6-yn-1-yl)-5-oxopyrrolidin-1-yl)ethyl)benzoic acid], the EC50 on rat EP2 receptor came to 120 nM. Besides, in data set [1], the IC50 turned out to be 1.3 nM and the Ki was determined as 0.47 nM. Moreover, the EC50 at rat EP4 receptor [2] is 0.19 nM.
For the molecule `CC#CC[C@H](C)[C@H](O)/C=C/[C@H]1CCC(=O)N1CCCCCCC(=O)O` [Example 1E, 7-((R)-2-((3S,4S,E)-3-hydroxy-4-methyloct-1-en-6-yn-1-yl)-5-oxopyrrolidin-1-yl)heptanoic acid], the melting point – broadly, the temperature, or range, at which the solid turns liquid – is 113 to 114 °C. Further, at rat EP2 receptor, the EC50 worked out at 800 nM. Also, the EC50 at rat EP4 receptor [3] was found to be 2.98 nM. Besides, in data set [1], the IC50 is 3.9 nM and the Ki turned out to be 1.5 nM. At rat EP4 receptor [2], the EC50 amounted to 0.57 nM.
`CC#CC[C@@H](C)[C@H](O)/C=C/[C@H]1CCC(=O)N1CCCCCCC(=O)O` [Example 1F, 7-((R)-2-((3S,4R,E)-3-hydroxy-4-methyloct-1-en-6-yn-1-yl)-5-oxopyrrolidin-1-yl)heptanoic acid] yielded a melting point of 100 to 101 °C. The EC50 on rat EP2 receptor is 184 nM. Also, in data set [1], the IC50 was 18 nM and the Ki was 6.9 nM. Further, at rat EP4 receptor [2], the EC50 worked out at 5.79 nM.
For the molecule `CCC#CC[C@H](C)[C@H](O)/C=C/[C@H]1CCC(=O)N1CCCCCCC(=O)O` [Example 2E, 7-((R)-2-((3S,4S,E)-3-hydroxy-4-methylnon-1-en-6-yn-1-yl)-5-oxopyrrolidin-1-yl)heptanoic acid], the EC50 on rat EP4 receptor [3] was determined as 0.96 ± 0.46 nM. In data set [1], the IC50 came to 3 nM and the Ki was 1.1 nM. In addition, the “Healing of a calvarial bone defect” value in the data set on calvarial bone defect is recorded as “Accelerated Healing”. The EC50 at rat EP4 receptor [2] was determined as 0.19 ± 0.07 nM.
Take `CCC#CC[C@H](C)[C@H](O)/C=C/[C@H]1CCC(=O)N1CCc1ccc(C(=O)O)cc1` [Example 9C, 4-(2-((R)-2-((3S,4S,E)-3-hydroxy-4-methylnon-1-en-6-yn-1-yl)-5-oxopyrrolidin-1-yl)ethyl)benzoic acid]: the EC50 at rat EP4 receptor [3] was determined as 0.31 nM; at rat EP4 receptor [2], 0.02 nM. Besides, in data set [1], the IC50 was found to be 0.67 nM. In data set [1], the inhibition constant (Ki) was determined as 0.25 nM.
For `CCC#CC[C@H](C)[C@H](O)/C=C/[C@H]1CCC(=O)N1CCCc1ccc(C(=O)O)s1` [Example 17D, 5-(3-((R)-2-((3S,4S,E)-3-hydroxy-4-methylnon-1-en-6-yn-1-yl)-5-oxopyrrolidin-1-yl)propyl)thiophene-2-carboxylic acid], the results for the EC50 at rat EP2 receptor, at rat EP4 receptor [3] and at rat EP4 receptor [2] were 5300 nM, 1.54 nM and 0.32 nM, respectively. Also, in data set [1], the IC50 stood at 6.1 nM. Further, the Ki in data set [1] was 2.3 nM.
As for `CCC#CCC(C)[C@H](O)/C=C/[C@H]1CCC(=O)N1CCCc1ccc(C(=O)O)s1` (stereo partly drawn) [Example 17F, 5-(3-((R)-2-((3S,E)-3-hydroxy-4-methylnon-1-en-6-yn-1-yl)-5-oxopyrrolidin-1-yl)propyl)thiophene-2-carboxylic acid], the EC50 was greater than 10000 nM on rat EP2 receptor and 0.091 nM at rat EP4 receptor [2].
For the molecule `CCC#CCC(C)[C@@H](O)/C=C/[C@H]1CCC(=O)N1CCCc1ccc(C(=O)O)s1` (stereo partly drawn) [Example 17G, 5-(3-((R)-2-((3R,E)-3-hydroxy-4-methylnon-1-en-6-yn-1-yl)-5-oxopyrrolidin-1-yl)propyl)thiophene-2-carboxylic acid], the EC50 on rat EP2 receptor was greater than 10000 nM; on rat EP4 receptor [2] it was 18.4 nM.
Taken in the same sequence, the figures for `CC(CC#Cc1ccccc1)[C@H](O)/C=C/[C@H]1CCC(=O)N1CCCc1ccc(C(=O)O)s1` (stereo partly drawn) [Example 18C, 5-(3-((2R)-2-((3S,E)-3-hydroxy-4-methyl-7-phenylhept-1-en-6-yn-1-yl)-5-oxopyrrolidin-1-yl)propyl)thiophene-2-carboxylic acid] were greater than 10000 nM and less than 0.01 nM.
In the same order, the values of `CC(CC#Cc1ccccc1)[C@@H](O)/C=C/[C@H]1CCC(=O)N1CCCc1ccc(C(=O)O)s1` (stereo partly drawn) [Example 18D, 5-(3-((2R)-2-((3R,E)-3-hydroxy-4-methyl-7-phenylhept-1-en-6-yn-1-yl)-5-oxopyrrolidin-1-yl)propyl)thiophene-2-carboxylic acid] are greater than 10000 nM and 2.03 nM.
